Measured values from US20180369186A1, “METHOD FOR MODULATING AUTOPHAGY AND APPLICATIONS THEREOF” (JAWAHARLAL NEHRU CENTRE FOR ADVANCED SCIENTIFIC RESEARCH, priority 2015, published 2018).

Columns and labels:
LC3B-II = assay: LC3 processing assay in HeLa cells; assay type: cell-based, human
Method: For EGFP-α-synuclein degradation assay, equal numbers of sub-confluent SH-SY5Y cells are seeded in 6 well dishes and allowed to attach for 24 h. Cells are transfected with EGFP-α-synuclein plasmid using Lipofectamine 2000 (Life technologies) and allowed to express for 24 h.
After treatments, cells are collected in Laemmli buffer to perform LC3 processing assay, P70S6K, GSK3β and 4E-BP1 immunoblotting. To validate EGFP-α-synuclein degradation by 6-Bio, treated cells are scraped and collected in growth medium. After washing with phosphate buffer, pellets are lysed in Laemmli buffer and boiled for 10 min.
Samples are electrophoresed on SDS-PAGE (8-15%) and then transferred onto PVDF (Bio-Rad) membrane using Transblot turbo (Bio-Rad). Transferred blots are stained with Ponceau S, probed with appropriate primary antibodies overnight and subsequently horseradish peroxidase conjugated secondary antibody. Signals are developed using enhanced chemiluminescence substrate (Clarity, Bio-Rad), imaged using a gel documentation system (G-Box, Syngene) and bands are quantified using image software (NIH). (FIGS. 4F and 5A)

[1] = Rotarod test in MPTP mice; assay type: in vivo; details: 5 mg/kg
Method: All the behavioural experiments are done on 3-4 month old, male C57/B16 mice. Experimenters are blind to the drug injected animals. Experimenters handle mice used for behavioral experiments for 3 consecutive days prior to the training paradigm. Behavioral experiments are designed in an order of low to high stress activity for mice. Therefore, Open Field Test is conducted in forenoon while rotarod is performed in the afternoon.
Mice were habituated to the behaviour room for 15 minutes every day before start of experiments. The light intensity is maintained at 100 lux throughout the experiment. Mice are weighed every day before training or test to ensure their good health. Mice are randomly allocated into three treatment cohorts: placebo control, MPTP and 6-Bio. Data is plotted using GraphPad prism 5 software.
The rotarod instrument is custom made at the Mechanical workshop, National Centre of Biological Sciences, Bengaluru, India. The rotating rod (diameter 3.3 cm) is made of Delrin and is textured to enhance the grip of mice. The rod is fixed at a height of 30 cm from the cushioned platform where mice fell on to during training and test. The rod is partitioned into three areas of 9.3 cm distance between each partition using discs (40 cm diameter) made of Teflon. […] The entire trial is video recorded using a DSLR camera (Nikon D5100) and latencies are scored manually. […]

MAP1LC3B = MAP1LC3B conversion assay in HeLa cells; assay type: cell-based, human
Method: Total cell lysates are electrophoresed on different 1 percentages of SDS-PAGE based on the desired protein size and transferred onto PVDF membrane at constant current of 2 Ampere for 30 minutes (Transblot turbo, Bio-Rad Inc, USA). Transfer is confirmed by Ponceau S staining of blot and the blots scanned are used as loading controls. Blots are incubated overnight with 5% skim milk in primary antibody (Anti-GFP, Roche #11814460001, Anti-MAP1LC3B, CST #L7543). Secondary antibody used at 1:10.000 is goat anti-mouse (Bio-7 Rad #172-1011) or goat anti-rabbit antibody (Bio-Rad #172-1019) conjugated to HRP. Blots are developed by using ECL substrate (Thermo Scientific #34087 or Bio-Rad #170-5061) and images captured using auto capture program in Syngene G-Box, UK. image J (NIH) are used for quantitation of band intensities.
For mammalian cells, following appropriate treatments, cells are washed with ice cold PBS. Cells are then lysed in 100 μl of sample buffer (10% w/v SDS, 10 mM DTT, 20% v/v glycerol, 0.2 Tris-HCL pH 6.8, 0.05% w/v bromophenol blue) and then collected using a rubber cell scraper. The lysates are boiled at 99° C. for 15 minutes and stored at −20° C.

EGFR = EGFR trafficking (endocytosis-mediated EGFR degradation); assay type: cell-based, human; details: HeLa; 100 ng/ml EGF; 0-3 hours
Method: HeLa cells are plated on 6 well plates and allowed to attach on the surface. The cells are washed with PBS and then starved in DMEM (serum free media) for 3 hours. Pre-treatment with compounds is carried out for 1 hour, following which they are pulsed with 100 ng/ml of EGF and samples are collected at 0, 1, 2 and 3 hours.

[2] = test system: SH-SY5Y cells (autophagosomes and autolysosomes); assay: Tandem RFP-EGFP-LC3 assay in SH-SY5Y cells; assay type: cell-based, human; details: 2 h
Method: Sub-confluent HeLa and/or SH-SY5Y cells are seeded into 60 mm cell culture dishes, then transfected with ptf LC3 construct and/or siRNA and allowed to express for 48 h. Cells are trypsinized, seeded again on poly-D-lysine coated cover slips in a 12 or 24 well plates and allowed to attach. After appropriate treatments, the coverslips containing cells are processed for imaging. For immunofluorescent antibody staining, the cover slips are incubated in primary antibody at 4° C. for overnight followed by secondary antibody incubation at room temperature.
For imaging the mammalian cells, after appropriate treatments, coverslips containing cells are fixed using 4% paraformaldehyde (PFA) (Sigma) and then permeabilized using Triton X-100 (0.2%, HiMedia). On slide, coverslips are mounted using antifade, Vectashield mounting medium (Vector laboratories). For antibody staining, coverslips are blocked using 5% BSA for 1 h at room temperature, then incubated with primary antibody at 4° C., overnight and then subsequently probed with corresponding fluorescent dye conjugated secondary antibody.

[3] = nutrient-rich and starvation conditions

SMILES: O=C1Nc2cc(Br)ccc2/C1=C1/Nc2ccccc2/C1=N\O [6-Bio, (2′Z,3′E)-6-Bromoindirubin-3′-oxime]
- LC3-II levels (LC3B-II; 2 h): increases LC3-II
- LC3B-II accumulated in presence of E64D and Pepstatin A (LC3B-II; with lysosomal protease inhibitors, vs 6-Bio only): significantly more
- latency to fall, Co versus MPTP ([1]; MPTP+Co, day 13): increased
- latency to fall, Post versus MPTP ([1]; administered after 48 h MPTP): not protected

SMILES: Cc1ccc(S(=O)(=O)/C=C/C#N)cc1 [Bay11, 3-[(4-methylphenyl)sulfonyl]-(2E)-propenenitrile]
- MAP1LC3B-II/MAP1LC3B-I and MAP1LC3B-II/TUBB ratios, prolonged treatment (MAP1LC3B; 12 hours): significant reduction
- MAP1LC3B-II/TUBB ratio with BFA (autophagosome synthesis) (MAP1LC3B; in the presence of BFA): reduces MAP1LC3B12 II/TUBB ratio
- MAP1LC3B-II/MAP1LC3B-I ratio (MAP1LC3B; [3]): decreases MAP1LC3B-II/MAP1LC3B-I ratio
- MAP1LC3B-II/TUBB ratio (MAP1LC3B; [3]): no significant changes
- degradation of EGFR over time upon EGF treatment (EGFR): no difference in the degradation of EGFR

SMILES: COc1cc(C=C(C#N)C(=O)Nc2nnc(C(F)(F)F)s2)ccc1OCc1ccc(C(F)(F)F)cc1C(F)(F)F [XCT 790, 3-[4-(2,4-Bis-trifluoromethylbenzyloxy)-3-methoxyphenyl]-2-cyano-N-(5-trifluoromethyl-1,3,4-thiadiazol-2-yl)acrylamide]
- autolysosomes, fold vs control [2]: ~4 fold
- autophagosomes, fold vs control [2]: ~2 fold
